Several values for one entry are separate records, joined by “and”; a condition that tells them apart may be missing. Equal values may be shown once. Read-outs that look alike come from different tables or passages of the source.
Tests used:
Test in all cases: Kinase inhibitor specificity profiling (Reaction Biology Corporation)
Format in all cases: biochemical
Set-up in all cases: % Enzyme Activity (relative to DMSO controls): concentration or dose not given beside the values
[1] = target: T1, panel of 370 protein kinases (Homo sapiens, UniProt Q9UL54); conditions: 2 h, kinase TAOK2/TAO1; read-out: % Enzyme Activity (relative to DMSO controls)
T1 construct: purchased Reaction Biology Corporation (assay service)

[2] = target: T2, panel of 370 protein kinases (Homo sapiens, UniProt P51812); conditions: 2 h, kinase RSK2; read-out: % Enzyme Activity (relative to DMSO controls)
T2 construct: purchased Reaction Biology Corporation (assay service)

[3] = target: T3, panel of 370 protein kinases (Homo sapiens, UniProt O00141); conditions: 2 h, kinase SGK1; read-out: % Enzyme Activity (relative to DMSO controls)
T3 construct: purchased Reaction Biology Corporation (assay service)

[4] = target: T4, panel of 370 protein kinases (Homo sapiens, UniProt Q9NRH2); conditions: 2 h, kinase SNRK; read-out: % Enzyme Activity (relative to DMSO controls)
T4 construct: purchased Reaction Biology Corporation (assay service)

[5] = target: T5, panel of 370 protein kinases (Homo sapiens, UniProt O75582); conditions: 2 h, kinase MSK1/RPS6KA5; read-out: % Enzyme Activity (relative to DMSO controls)
T5 construct: purchased Reaction Biology Corporation (assay service)

[6] = target: T6, panel of 370 protein kinases (Homo sapiens, UniProt P16234); conditions: 2 h, kinase PDGFRa; read-out: % Enzyme Activity (relative to DMSO controls)
T6 construct: purchased Reaction Biology Corporation (assay service)

[7] = target: T7, panel of 370 protein kinases (Homo sapiens, UniProt Q8N5S9); conditions: 2 h, kinase CAMKK1; read-out: % Enzyme Activity (relative to DMSO controls)
T7 construct: purchased Reaction Biology Corporation (assay service)

[8] = target: T8, panel of 370 protein kinases (Homo sapiens, UniProt P78362); conditions: 2 h, kinase SRPK2; read-out: % Enzyme Activity (relative to DMSO controls)
T8 construct: purchased Reaction Biology Corporation (assay service)

[9] = target: T9, panel of 370 protein kinases (Homo sapiens, UniProt P57059); conditions: kinase SIK1
T9 construct: purchased Reaction Biology Corporation (assay service)

[10] = target: T10, panel of 370 protein kinases (Homo sapiens, UniProt P11802); conditions: 2 h, read-out: % Enzyme Activity (relative to DMSO controls)
T10 construct: purchased Reaction Biology Corporation (assay service)

[11] = target: T11, panel of 370 protein kinases (Homo sapiens, UniProt Q9UQB9); conditions: 2 h, kinase AURORA C; read-out: % Enzyme Activity (relative to DMSO controls)
T11 construct: purchased Reaction Biology Corporation (assay service)

[12] = target: T12, panel of 370 protein kinases (Homo sapiens, UniProt Q9Y4K4); conditions: 2 h, kinase KHS/MAP4K5; read-out: % Enzyme Activity (relative to DMSO controls)
T12 construct: purchased Reaction Biology Corporation (assay service)

[13] = target: T13, panel of 370 protein kinases (Homo sapiens, UniProt P54764); conditions: 2 h, kinase EPHA4; read-out: % Enzyme Activity (relative to DMSO controls)
T13 construct: purchased Reaction Biology Corporation (assay service)

[14] = target: T14, panel of 370 protein kinases (Homo sapiens, UniProt Q9UEW8); conditions: 2 h, kinase STK39/STLK3; read-out: % Enzyme Activity (relative to DMSO controls)
T14 construct: purchased Reaction Biology Corporation (assay service)

[15] = target: T15, panel of 370 protein kinases (Homo sapiens, UniProt P49674); conditions: 2 h, kinase CK1epsilon; read-out: % Enzyme Activity (relative to DMSO controls)
T15 construct: purchased Reaction Biology Corporation (assay service)

[16] = target: T16, panel of 370 protein kinases (Homo sapiens, UniProt Q00537); conditions: 2 h, kinase CDK17/cyclin Y (PCTK2); read-out: % Enzyme Activity (relative to DMSO controls)
T16 construct: purchased Reaction Biology Corporation (assay service)

[17] = target: T17, panel of 370 protein kinases (Homo sapiens, UniProt O95819); conditions: 2 h, kinase HGK/MAP4K4; read-out: % Enzyme Activity (relative to DMSO controls)
T17 construct: purchased Reaction Biology Corporation (assay service)

[18] = target: T18, panel of 370 protein kinases (Homo sapiens, UniProt P41240); conditions: kinase CSK
T18 construct: purchased Reaction Biology Corporation (assay service)

[19] = target: T19, panel of 370 protein kinases (Homo sapiens, UniProt P06213); conditions: 2 h, kinase IR; read-out: % Enzyme Activity (relative to DMSO controls)
T19 construct: purchased Reaction Biology Corporation (assay service)

[20] = target: T20, panel of 370 protein kinases (Homo sapiens, UniProt Q96PY6); conditions: 2 h, kinase NEK1; read-out: % Enzyme Activity (relative to DMSO controls)
T20 construct: purchased Reaction Biology Corporation (assay service)

[21] = target: T21, panel of 370 protein kinases (Homo sapiens, UniProt P17948); conditions: 2 h, kinase FLT1/VEGFR1; read-out: % Enzyme Activity (relative to DMSO controls)
T21 construct: purchased Reaction Biology Corporation (assay service)

T18 sequence (P41240 whole entry): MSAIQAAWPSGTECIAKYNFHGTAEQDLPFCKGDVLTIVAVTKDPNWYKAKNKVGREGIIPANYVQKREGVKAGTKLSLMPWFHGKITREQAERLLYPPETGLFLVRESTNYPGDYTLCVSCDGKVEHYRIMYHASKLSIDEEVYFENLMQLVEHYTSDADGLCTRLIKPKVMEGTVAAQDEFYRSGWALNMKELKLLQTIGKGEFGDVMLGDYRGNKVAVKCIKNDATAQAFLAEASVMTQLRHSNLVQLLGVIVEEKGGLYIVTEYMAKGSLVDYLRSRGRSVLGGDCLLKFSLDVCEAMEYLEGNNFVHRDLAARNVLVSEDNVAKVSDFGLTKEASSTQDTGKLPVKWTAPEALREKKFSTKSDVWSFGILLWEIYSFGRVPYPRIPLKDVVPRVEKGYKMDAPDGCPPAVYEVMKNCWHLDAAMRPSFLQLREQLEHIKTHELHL
T10 sequence (P11802 whole entry): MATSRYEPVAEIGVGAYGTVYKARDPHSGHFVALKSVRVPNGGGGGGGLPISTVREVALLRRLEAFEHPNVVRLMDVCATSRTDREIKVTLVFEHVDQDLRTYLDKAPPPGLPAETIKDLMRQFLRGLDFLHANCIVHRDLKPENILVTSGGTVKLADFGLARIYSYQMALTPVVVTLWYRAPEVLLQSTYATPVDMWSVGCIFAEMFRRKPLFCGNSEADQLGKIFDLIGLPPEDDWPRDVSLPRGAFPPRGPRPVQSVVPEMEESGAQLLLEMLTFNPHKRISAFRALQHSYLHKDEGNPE
T9 sequence (P57059 whole entry): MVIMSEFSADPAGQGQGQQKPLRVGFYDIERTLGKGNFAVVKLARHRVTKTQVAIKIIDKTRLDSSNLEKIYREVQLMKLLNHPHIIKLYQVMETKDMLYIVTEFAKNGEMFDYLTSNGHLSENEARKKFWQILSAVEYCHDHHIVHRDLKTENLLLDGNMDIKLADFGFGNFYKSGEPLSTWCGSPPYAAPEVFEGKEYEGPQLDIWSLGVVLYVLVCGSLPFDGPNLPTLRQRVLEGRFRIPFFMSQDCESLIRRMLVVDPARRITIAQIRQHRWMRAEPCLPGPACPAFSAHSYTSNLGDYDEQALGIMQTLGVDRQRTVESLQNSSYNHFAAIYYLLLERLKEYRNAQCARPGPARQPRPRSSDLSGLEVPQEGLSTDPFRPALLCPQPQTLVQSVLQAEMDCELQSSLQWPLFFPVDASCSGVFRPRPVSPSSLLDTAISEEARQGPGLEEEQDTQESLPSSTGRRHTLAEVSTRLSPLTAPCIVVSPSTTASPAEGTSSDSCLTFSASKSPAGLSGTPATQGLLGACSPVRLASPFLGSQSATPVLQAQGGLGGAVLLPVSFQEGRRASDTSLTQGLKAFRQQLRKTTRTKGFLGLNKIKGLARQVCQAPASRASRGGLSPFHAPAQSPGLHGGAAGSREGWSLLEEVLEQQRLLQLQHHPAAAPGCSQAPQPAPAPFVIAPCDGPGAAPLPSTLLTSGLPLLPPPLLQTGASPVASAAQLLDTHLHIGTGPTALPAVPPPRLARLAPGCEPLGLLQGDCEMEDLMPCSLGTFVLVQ
T4 sequence (Q9NRH2 whole entry): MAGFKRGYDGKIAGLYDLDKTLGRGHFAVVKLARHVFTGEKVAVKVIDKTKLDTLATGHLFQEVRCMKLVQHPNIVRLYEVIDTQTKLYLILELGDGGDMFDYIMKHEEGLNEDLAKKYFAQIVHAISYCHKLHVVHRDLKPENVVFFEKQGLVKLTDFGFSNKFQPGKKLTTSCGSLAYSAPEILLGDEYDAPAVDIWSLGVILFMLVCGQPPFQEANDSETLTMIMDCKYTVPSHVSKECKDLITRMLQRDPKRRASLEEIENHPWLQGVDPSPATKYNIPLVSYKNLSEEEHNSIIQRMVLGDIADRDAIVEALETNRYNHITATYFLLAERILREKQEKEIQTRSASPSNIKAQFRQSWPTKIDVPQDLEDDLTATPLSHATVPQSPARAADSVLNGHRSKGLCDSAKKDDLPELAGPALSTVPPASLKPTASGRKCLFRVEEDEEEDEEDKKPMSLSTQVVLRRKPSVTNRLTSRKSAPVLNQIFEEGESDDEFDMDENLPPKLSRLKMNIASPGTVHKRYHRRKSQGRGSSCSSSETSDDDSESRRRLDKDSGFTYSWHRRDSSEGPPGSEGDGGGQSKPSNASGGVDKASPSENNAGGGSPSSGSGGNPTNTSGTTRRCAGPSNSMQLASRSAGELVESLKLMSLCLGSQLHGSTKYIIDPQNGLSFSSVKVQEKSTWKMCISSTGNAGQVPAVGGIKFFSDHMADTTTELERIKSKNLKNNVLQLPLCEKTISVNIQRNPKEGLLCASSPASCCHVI
T3 sequence (O00141 whole entry): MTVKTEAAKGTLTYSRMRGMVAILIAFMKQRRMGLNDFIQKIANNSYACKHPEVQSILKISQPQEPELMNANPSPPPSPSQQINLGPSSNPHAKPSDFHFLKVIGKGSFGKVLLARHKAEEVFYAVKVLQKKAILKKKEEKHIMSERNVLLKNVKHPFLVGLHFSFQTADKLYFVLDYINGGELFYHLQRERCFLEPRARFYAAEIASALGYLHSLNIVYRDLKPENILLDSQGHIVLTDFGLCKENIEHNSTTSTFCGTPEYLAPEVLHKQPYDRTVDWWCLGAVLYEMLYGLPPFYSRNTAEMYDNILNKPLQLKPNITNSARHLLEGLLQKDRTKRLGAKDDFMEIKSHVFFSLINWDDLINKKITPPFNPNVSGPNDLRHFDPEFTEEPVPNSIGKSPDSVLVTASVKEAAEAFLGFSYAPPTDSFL
T16 sequence (Q00537 whole entry): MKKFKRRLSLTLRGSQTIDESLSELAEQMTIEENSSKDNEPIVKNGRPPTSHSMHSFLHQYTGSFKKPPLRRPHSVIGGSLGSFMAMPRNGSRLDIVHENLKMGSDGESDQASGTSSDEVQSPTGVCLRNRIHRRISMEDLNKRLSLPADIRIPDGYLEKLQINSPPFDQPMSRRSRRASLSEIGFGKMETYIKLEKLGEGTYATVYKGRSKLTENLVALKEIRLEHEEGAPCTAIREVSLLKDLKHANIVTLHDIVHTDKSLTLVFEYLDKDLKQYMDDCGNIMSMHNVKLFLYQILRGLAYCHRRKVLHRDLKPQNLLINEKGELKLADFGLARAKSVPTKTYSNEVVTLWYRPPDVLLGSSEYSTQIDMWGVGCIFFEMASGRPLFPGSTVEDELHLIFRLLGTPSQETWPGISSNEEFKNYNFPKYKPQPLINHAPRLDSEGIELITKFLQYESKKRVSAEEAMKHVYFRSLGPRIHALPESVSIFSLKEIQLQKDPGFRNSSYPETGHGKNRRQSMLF
T6 sequence (P16234 24-1089): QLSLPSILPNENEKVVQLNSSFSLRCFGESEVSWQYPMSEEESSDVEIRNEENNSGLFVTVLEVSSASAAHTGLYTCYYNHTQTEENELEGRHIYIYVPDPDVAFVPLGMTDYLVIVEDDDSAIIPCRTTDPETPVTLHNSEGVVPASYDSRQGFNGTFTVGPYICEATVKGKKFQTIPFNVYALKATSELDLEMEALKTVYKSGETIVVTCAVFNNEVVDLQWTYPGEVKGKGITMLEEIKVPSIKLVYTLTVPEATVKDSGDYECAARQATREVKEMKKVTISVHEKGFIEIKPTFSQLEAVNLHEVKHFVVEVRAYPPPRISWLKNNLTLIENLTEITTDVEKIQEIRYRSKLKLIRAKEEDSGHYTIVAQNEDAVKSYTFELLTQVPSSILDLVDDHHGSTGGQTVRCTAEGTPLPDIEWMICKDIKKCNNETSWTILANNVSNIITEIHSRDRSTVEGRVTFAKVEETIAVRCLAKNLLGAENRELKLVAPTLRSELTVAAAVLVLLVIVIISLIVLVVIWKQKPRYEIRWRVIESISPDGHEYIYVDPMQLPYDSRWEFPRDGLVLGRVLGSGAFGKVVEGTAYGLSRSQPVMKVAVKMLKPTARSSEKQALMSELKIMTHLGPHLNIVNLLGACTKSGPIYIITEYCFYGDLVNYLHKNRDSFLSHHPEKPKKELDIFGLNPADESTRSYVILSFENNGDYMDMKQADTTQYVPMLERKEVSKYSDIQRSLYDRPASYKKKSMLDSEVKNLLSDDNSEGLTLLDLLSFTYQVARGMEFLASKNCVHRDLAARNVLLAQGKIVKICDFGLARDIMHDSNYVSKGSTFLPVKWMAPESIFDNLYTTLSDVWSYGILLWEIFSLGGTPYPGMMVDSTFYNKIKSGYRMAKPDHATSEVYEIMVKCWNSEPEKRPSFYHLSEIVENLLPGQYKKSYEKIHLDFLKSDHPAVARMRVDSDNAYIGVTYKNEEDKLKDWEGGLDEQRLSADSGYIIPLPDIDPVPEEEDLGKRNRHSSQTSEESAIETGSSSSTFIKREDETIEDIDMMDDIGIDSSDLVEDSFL
T15 sequence (P49674 whole entry): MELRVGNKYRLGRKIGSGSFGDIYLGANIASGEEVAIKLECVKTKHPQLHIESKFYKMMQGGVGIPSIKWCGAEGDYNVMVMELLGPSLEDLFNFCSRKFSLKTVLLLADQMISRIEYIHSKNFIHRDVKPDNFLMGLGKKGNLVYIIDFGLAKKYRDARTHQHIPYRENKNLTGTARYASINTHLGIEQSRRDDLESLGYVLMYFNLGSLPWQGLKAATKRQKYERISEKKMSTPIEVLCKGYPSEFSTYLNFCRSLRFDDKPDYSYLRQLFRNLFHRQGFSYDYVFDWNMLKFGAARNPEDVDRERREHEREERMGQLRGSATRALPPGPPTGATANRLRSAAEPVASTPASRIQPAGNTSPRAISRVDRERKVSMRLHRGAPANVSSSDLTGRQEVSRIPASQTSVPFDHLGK

CCN1CCN(C(=O)c2ccc(Nc3ncc(F)c(-c4ccc5nc(N(C)C)sc5c4)n3)nc2)CC1 [YK-2-69]
remaining activity at 1 µM [1]: 97%
remaining activity at 1 µM [2]: 74.5%
remaining activity at 1 µM [3]: 60.9%
remaining activity at 1 µM [4]: 95.4%
remaining activity at 1 µM [5]: 115%
remaining activity at 1 µM [6]: 104%
remaining activity at 1 µM [7]: 95.7%
remaining activity at 1 µM [8]: 89.3%
% Enzyme Activity (relative to DMSO controls) [9]: 99.48% and 98.60%
remaining activity at 1 µM ([10]; kinase CDK4/cyclin D1): 6.13%
remaining activity at 1 µM ([10]; kinase CDK4/cyclin D3): 11.2%
remaining activity at 1 µM [11]: 94.7%
remaining activity at 1 µM [12]: 101%
remaining activity at 1 µM [13]: 70.2%
remaining activity at 1 µM [14]: 39.9%
remaining activity at 1 µM [15]: 111%
remaining activity at 1 µM [16]: 99.2%
remaining activity at 1 µM [17]: 86.8%
% Enzyme Activity (relative to DMSO controls) [18]: 102.94% and 101.79%
remaining activity at 1 µM [19]: 99.4%
remaining activity at 1 µM [20]: 69.2%
remaining activity at 1 µM [21]: 101%
